Laboratory results: PubChem BioAssay (NCI)
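The compound was tested at five concentrations on cells cultured in 96-well plates, with a 48-hour exposure period. The concentration for full growth arrest is given as TGI.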

Legend:
Test in all cases: NCI tumour cell line growth inhibition, 48 h
SK-MEL-28 melanoma = system: SK-MEL-28 melanoma
KM12 colon = system: KM12 colon
M14 melanoma = system: M14 melanoma
OVCAR-3 ovarian = system: OVCAR-3 ovarian
SNB-19 CNS = system: SNB-19 CNS
SF-539 CNS = system: SF-539 CNS
OVCAR-8 ovarian = system: OVCAR-8 ovarian
LOX IMVI melanoma = system: LOX IMVI melanoma
SF-268 CNS = system: SF-268 CNS
SNB-75 CNS = system: SNB-75 CNS
BT-549 breast = system: BT-549 breast
COLO 205 colon = system: COLO 205 colon
MDA-MB-231 breast = system: MDA-MB-231 breast
SR leukemia = system: SR leukemia
IGROV1 ovarian = system: IGROV1 ovarian
DU-145 prostate = system: DU-145 prostate
SK-OV-3 ovarian = system: SK-OV-3 ovarian
PC-3 prostate = system: PC-3 prostate
786-0 renal = system: 786-0 renal
U251 CNS = system: U251 CNS
HCT-116 colon = system: HCT-116 colon
HT29 colon = system: HT29 colon
NCI-H460 lung = system: NCI-H460 lung
NCI-H522 lung = system: NCI-H522 lung
UO-31 renal = system: UO-31 renal
HCC-2998 colon = system: HCC-2998 colon
EKVX NSCLC = system: EKVX NSCLC
OVCAR-4 ovarian = system: OVCAR-4 ovarian
MDA-MB-435 = system: MDA-MB-435
UACC-62 melanoma = system: UACC-62 melanoma
SW-620 colon = system: SW-620 colon
HL-60(TB) leukemia = system: HL-60(TB) leukemia
MCF7 breast = system: MCF7 breast
NCI-H23 lung = system: NCI-H23 lung
NCI/ADR-RES ovarian = system: NCI/ADR-RES ovarian
OVCAR-5 ovarian = system: OVCAR-5 ovarian
SN12C renal = system: SN12C renal
SF-295 CNS = system: SF-295 CNS
UACC-257 melanoma = system: UACC-257 melanoma
A549 NSCLC = system: A549 NSCLC
MOLT-4 leukemia = system: MOLT-4 leukemia
HOP-62 NSCLC = system: HOP-62 NSCLC
CCRF-CEM leukemia = system: CCRF-CEM leukemia
HCT-15 colon = system: HCT-15 colon
SK-MEL-5 melanoma = system: SK-MEL-5 melanoma
TK-10 renal = system: TK-10 renal
T-47D breast = system: T-47D breast
K-562 leukemia = system: K-562 leukemia
MDA-N = system: MDA-N
HOP-92 NSCLC = system: HOP-92 NSCLC
MALME-3M melanoma = system: MALME-3M melanoma
SK-MEL-2 melanoma = system: SK-MEL-2 melanoma
RPMI-8226 leukemia = system: RPMI-8226 leukemia
CAKI-1 renal = system: CAKI-1 renal
HS 578T breast = system: HS 578T breast
RXF 393 renal = system: RXF 393 renal
ACHN renal = system: ACHN renal
A498 renal = system: A498 renal
NCI-H226 lung = system: NCI-H226 lung

Measured: TGI

c1ccc2c(c1)SCCCSCCSCCCS2
> 100 µM: SK-MEL-28 melanoma | KM12 colon | M14 melanoma | OVCAR-3 ovarian | SNB-19 CNS | SF-539 CNS | OVCAR-8 ovarian | LOX IMVI melanoma | SF-268 CNS | SNB-75 CNS | BT-549 breast | COLO 205 colon | MDA-MB-231 breast | SR leukemia | IGROV1 ovarian | DU-145 prostate | SK-OV-3 ovarian | PC-3 prostate | 786-0 renal | U251 CNS | HCT-116 colon | HT29 colon | NCI-H460 lung | NCI-H522 lung | UO-31 renal | HCC-2998 colon | EKVX NSCLC | OVCAR-4 ovarian | MDA-MB-435 | UACC-62 melanoma | SW-620 colon | HL-60(TB) leukemia | MCF7 breast | NCI-H23 lung | NCI/ADR-RES ovarian | OVCAR-5 ovarian | SN12C renal | SF-295 CNS | UACC-257 melanoma | A549 NSCLC | MOLT-4 leukemia | HOP-62 NSCLC | CCRF-CEM leukemia | HCT-15 colon | SK-MEL-5 melanoma | TK-10 renal | T-47D breast | K-562 leukemia | MDA-N | HOP-92 NSCLC

Cc1ccc(S(=O)(=O)Nc2nnc(S(N)(=O)=O)s2)cc1
> 100 µM: SK-MEL-28 melanoma | KM12 colon | M14 melanoma | MALME-3M melanoma | OVCAR-3 ovarian | SNB-19 CNS | OVCAR-8 ovarian | LOX IMVI melanoma | SK-MEL-2 melanoma | SF-268 CNS | RPMI-8226 leukemia | BT-549 breast | COLO 205 colon | MDA-MB-231 breast | SR leukemia | CAKI-1 renal | DU-145 prostate | SK-OV-3 ovarian | 786-0 renal | U251 CNS | HCT-116 colon | NCI-H460 lung | NCI-H522 lung | HS 578T breast | UO-31 renal | HCC-2998 colon | EKVX NSCLC | RXF 393 renal | OVCAR-4 ovarian | MDA-MB-435 | UACC-62 melanoma | SW-620 colon | MCF7 breast | NCI-H23 lung | NCI/ADR-RES ovarian | ACHN renal | A498 renal | OVCAR-5 ovarian | SN12C renal | SF-295 CNS | UACC-257 melanoma | A549 NSCLC | MOLT-4 leukemia | HOP-62 NSCLC | HCT-15 colon | SK-MEL-5 melanoma | TK-10 renal | T-47D breast | K-562 leukemia | NCI-H226 lung | MDA-N | HOP-92 NSCLC
